The values below are quoted from earlier work in patent US6437103B1, “Fatty acid analogs for diagnosis of coronary artery disease” (Biostream Inc., priority 1999, dated 2002).

For this data set, the system named is myocardium. To be noted: background statement citing Goodman et al. 1984; Liefhold and Eisenhut 1986.

Turning to `O=C(O)CCCCCCCCCCCCCCc1ccc(I)cc1` [15-(p-iodophenyl)pentadecanoic acid], the myocardial uptake result is reported as “moderate”.
